From patent EP4741383A1, “COMPOUND AND USE THEREOF AS ANTI-CANCER DRUG” (Tyligand Bioscience (Shanghai) Limited, priority 2023, dated 2025)
Read-outs that look alike come from different tables or passages of the source.

Experiment: Rat PK study (IV 1 mg/kg and PO 5 mg/kg)
Format: in vivo, male SD rats
Details: for AUC(0-t) / clearance / half-life / Vd / Cmax: male, SD, rat, plasma; for clearance: read-out: IV Cl; for Vd: read-out: IV Vz
Protocol: According to standard methods for rat PK studies in this field, the rat PK tests for the representative compounds of this disclosure and the positive control compound (11a-1) were conducted as follows.
Specifically, six male SD rats (6-8 weeks old, weighing 200 ± 20 g, purchased from Vital River Laboratories) were randomly divided into two groups of three rats each, for intravenous (IV) and oral gavage (PO) administration, respectively.
For the intravenous injection group: the test compound was weighed according to the administration dose (1 mg/kg), dissolved using the solvent listed in the table below to obtain a clear solution of 1 mg/mL, and administered to the rats via tail vein injection at a dose of 1 mg/kg. […]
Blood was collected via jugular vein puncture at various time points: 0.083, 0.25, 0.5, 1, 2, 4, 6, 8, and 24 hours. 0.2 mL of whole blood was collected at each time point, placed in a 1.5 mL anticoagulant tube containing EDTA, and placed on a sample plate containing wet ice until centrifugation; after centrifugation at 8000 rpm for 10 minutes at 4°C, 0.1 mL of plasma sample was collected and stored in an […] cryovial at -20°C until analysis.
Preparation of the stock solution of the test compound: 1 mg of the test compound was accurately weighed, dissolved in 1 mL of DMSO to prepare a 1 mg/mL stock solution S1, and stored in a 4°C refrigerator until use.
Preparation of the internal standard working solution: 0.1 mL of tolbutamide (2 mg/mL) internal standard stock solution was pipetted into 1000 mL of acetonitrile to prepare a 200 ng/mL internal standard working solution, which is used as a protein precipitant in sample pretreatment. The prepared internal standard working solution was stored at 4°C and valid for 12 months.
Preparation of the standard curve and quality control sample working solutions: 50 µL of the 1 mg/mL test compound DMSO stock solution S1 was diluted with 950 µL of 100% methanol solution to obtain a working solution with a concentration of 50000 ng/mL. Then, the 50000 ng/mL working solution was serially diluted with 100% methanol solution to obtain a series of standard curve working solutions with concentrations of 10, 20, 50, 100, 500, 1000, 5000, 10000, 20000, and 50000 ng/mL. 40 µL of the 1 mg/mL test compound DMSO stock solution S1 was diluted with 960 µL of 100% methanol solution to obtain a quality control sample working solution with a concentration of 40000 ng/mL. An appropriate amount of this working solution was diluted appropriately to prepare quality control sample working solutions with concentrations of 8000 and 16000 ng/mL. 60 µL of the 50 ng/mL test compound DMSO standard curve working solution was diluted with 40 µL of 100% methanol solution to obtain a quality control sample working solution with a concentration of 30 ng/mL.
Plasma sample treatment: standard curve and quality control samples for the test compound in plasma were prepared by diluting 5 µL of working solutions of different concentrations of the test compound for the standard curve and quality control samples in 45 µL of blank rat plasma, resulting in final concentrations of 1, 2, 5, 10, 50, 100, 500, 1000, 2000, and 5000 ng/mL for the standard curve and final concentrations of 3, 800, 1600, and 4000 ng/mL for the quality control samples.
Plasma sample pretreatment: 50 µL of the plasma sample was transferred to a 96-well plate, added with 500 µL of acetonitrile containing 200 ng/mL tolbutamide as an internal standard for protein precipitation, and centrifuged at 4000 rpm for 20 minutes at 2-8 °C. 300 µL of the supernatant was transferred to a new labeled 96-well plate, mixed thoroughly with 300 µL of 0.1% formic acid in water, and injected 10 µL into LC-MS/MS (API-4000 Qtrap-Shimadzu Controller-CBM20A).
The internal standard method was used for sample analysis. Data acquisition and analysis were performed using Analyst 1.6.3. […]

[1] = 1 mg/kg, IV, dose 1 mpk, read-out: IV AUC 0->t
[2] = 1 mg/kg, IV, dose 1 mpk, read-out: IV T1/2 (converted)
[3] = 5 mg/kg, PO, dose 5 mpk, read-out: PO AUC 0->t
[4] = 5 mg/kg, PO, dose 5 mpk, read-out: PO T1/2 (converted)

| PO F (PO, dose 10 mpk (IV 1 mpk)) | AUC(0-t) [1] | clearance (1 mg/kg, IV, dose 1 mpk) | half-life [2] | Vd (1 mg/kg, IV, dose 1 mpk) | Cmax (10 mg/kg, PO, dose 10 mpk) | AUC(0-t) (10 mg/kg, PO, dose 10 mpk, read-out: PO AUC 0->t) | half-life (10 mg/kg, PO, dose 10 mpk, read-out: PO T1/2 (converted)) | PO F (PO, dose 5 mpk (IV 1 mpk)) | Cmax (5 mg/kg, PO, dose 5 mpk) | AUC(0-t) [3] | half-life [4] | SMILES |
| --- | --- | --- | --- | --- | --- | --- | --- | --- | --- | --- | --- | --- |
| 0.07% | 4230 ng·h/mL | 4 mL/min/kg | 4.06 h | 1.42 L/kg | 44.2 ng/mL | 30 ng·h/mL | 1.1 h |  |  |  |  | Cn1c(-c2cccc(NC(=O)C(=O)Nc3ccc(-c4ccsc4)cc3)c2)c(I)c2cc(C(=O)O)c(O)cc21 [Example 11a-1, reference compound] |
|  | 2840 ng·h/mL | 5.45 mL/min/kg | 8.49 h | 4.01 L/kg |  |  |  | 52.7% | 1140 ng/mL | 8010 ng·h/mL | 3.17 h | O=C(Nc1ccc(-c2cc3cc(F)c(-c4nnn[nH]4)cc3n2C2CCC2)cc1)C(=O)Nc1ccc(N2CCC(CO)CC2)cc1 [Example 23] |
|  | 1380 ng·h/mL | 12.6 mL/min/kg | 1.63 h | 1.57 L/kg |  |  |  | 30.5% | 150 ng/mL | 2100 ng·h/mL | 4.31 h | CC1(n2c(-c3ccc(NC(=O)C(=O)Nc4ccc(N5CCC6(CCOC6)CC5)cc4)cc3)cc3cc(F)c(-c4nnn[nH]4)cc32)CCC1 [Example 68] |
